According to US20240150362A1, “Substituted Pyrrolotriazines” (Molecure S.A., priority 2022, published 2024):
Structures can show the parent of a compound that is named as a salt.

molecular target: T1, full-length USP7 (Homo sapiens, UniProt Q93009); test: Enzymatic assay to determine IC50 of USP7 inhibitors (Ubiquitin-Rhodamine 110 cleavage); assay type: biochemical; conditions: full-length USP7 0.5-1.0 nM, 0.5 μM Ubiquitin-Rhodamine 110, 30-60 min at 25° C.
T1 construct: A 45 μl reaction volume containing full-length USP7 (0.5-1.0 nM)
T1 sequence (Q93009 whole entry): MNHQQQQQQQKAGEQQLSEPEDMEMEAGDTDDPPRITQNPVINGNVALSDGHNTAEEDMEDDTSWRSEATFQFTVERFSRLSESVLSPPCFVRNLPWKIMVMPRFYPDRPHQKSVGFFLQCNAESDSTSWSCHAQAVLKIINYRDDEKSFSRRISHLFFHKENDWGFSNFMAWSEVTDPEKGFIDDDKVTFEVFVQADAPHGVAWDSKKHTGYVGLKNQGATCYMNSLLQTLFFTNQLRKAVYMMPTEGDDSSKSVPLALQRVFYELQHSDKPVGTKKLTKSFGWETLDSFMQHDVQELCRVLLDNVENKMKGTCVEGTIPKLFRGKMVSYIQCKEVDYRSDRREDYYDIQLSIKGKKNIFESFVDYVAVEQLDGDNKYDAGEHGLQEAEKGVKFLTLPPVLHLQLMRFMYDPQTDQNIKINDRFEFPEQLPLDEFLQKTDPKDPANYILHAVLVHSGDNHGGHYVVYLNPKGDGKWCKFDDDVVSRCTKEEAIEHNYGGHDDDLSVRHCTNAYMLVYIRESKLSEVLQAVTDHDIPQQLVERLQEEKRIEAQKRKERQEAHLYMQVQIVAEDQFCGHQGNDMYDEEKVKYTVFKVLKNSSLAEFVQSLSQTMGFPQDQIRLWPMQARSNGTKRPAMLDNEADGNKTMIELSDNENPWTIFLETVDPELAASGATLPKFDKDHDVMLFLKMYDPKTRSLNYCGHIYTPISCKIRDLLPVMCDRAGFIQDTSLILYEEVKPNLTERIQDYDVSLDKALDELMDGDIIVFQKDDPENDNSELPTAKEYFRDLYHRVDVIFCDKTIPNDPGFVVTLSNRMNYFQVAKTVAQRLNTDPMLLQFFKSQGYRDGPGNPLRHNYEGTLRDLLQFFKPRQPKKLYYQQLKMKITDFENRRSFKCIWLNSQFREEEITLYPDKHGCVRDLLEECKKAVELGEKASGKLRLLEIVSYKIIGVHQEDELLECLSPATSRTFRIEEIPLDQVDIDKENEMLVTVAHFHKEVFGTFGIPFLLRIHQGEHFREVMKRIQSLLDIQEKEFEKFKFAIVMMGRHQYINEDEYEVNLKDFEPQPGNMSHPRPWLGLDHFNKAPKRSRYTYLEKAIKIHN
Description: Enzymatic Assay to Determine IC50 of USP7 Inhibitors
The IC50 is the concentration of an inhibitor where the measured enzyme activity is reduced by half. In the case of USP7 deubiquitinase, the IC50 of an USP7 inhibitor is the molar concentration of the compound that inhibits 50% of the activity observed in a USP7-mediated-ubiquitin-rhodamine cleavage assay. For the inhibitors disclosed herein, their potency was measured using the following method.
A 45 μl reaction volume containing full-length USP7 (0.5-1.0 nM) in 50 mM HEPES pH 7.5, 150 mM NaCl, 2 mM DTT, 1 mg/ml BSA and 0.05% Tween20 was assembled in wells of 96 well half area black flat bottom plates. Test compounds were first dissolved to 30 mM stocks in DMSO and subsequently introduced to enzyme 15 min after USP7 incubation with DTT at room temperature. The enzymatic reaction was started by adding 0.5 μM Ubiquitin-Rhodamine 110 (final concentration) and allowed to proceed for 30-60 min at 25° C., 250 RPM shaking before Rhodamine fluorescence (485 nm excitation/535 nm emission) was measured using Tecan Spark M10 plate reader. The IC50 values were determined by data fitting to variable slope model four-parameter dose-response curve using GraphPad 7.05.

| IC50 | SMILES |
| --- | --- |
| < 500 nM | CC1(C)C2C(=O)N(Cc3cc4c(-c5cc(Cl)cc6ccn(CC7CNCCO7)c56)ncnn4c3)C(=O)C21 (stereo not drawn) [Example 24, 3-((4-(5-chloro-1-(morpholin-2-ylmethyl)-1H-indol-7-yl)pyrrolo[2,1-f][1,2,4]triazin-6-yl)methyl)-6,6-dimethyl-3-azabicyclo[3.1.0]hexane-2,4-dione dihydrochloride] |
| < 500 nM | CC1(C)C2C(=O)N(Cc3cc4c(-c5cc(Cl)cc6c5N(CC5(F)CCNCC5)CCC6)ncnn4c3)C(=O)C21 (stereo not drawn) [Example 63, 3-((4-(6-chloro-1-((4-fluoropiperidin-4-yl)methyl)-1,2,3,4-tetrahydroquinolin-8-yl)pyrrolo[2,1-f][1,2,4]triazin-6-yl)methyl)-6,6-dimethyl-3-azabicyclo[3.1.0]hexane-2,4-dione hydrochloride] |
| < 500 nM | Cc1cc(Cl)cc(-c2ncnn3cc(CN4C(=O)C5C(C4=O)C5(C)C)cc23)c1CC1CN[C@@H](C)CO1 (stereo partly drawn) [Example 49, 3-((4-(5-chloro-3-methyl-2-(((5S)-5-methylmorpholin-2-yl)methyl)phenyl)pyrrolo[2,1-f][1,2,4]triazin-6-yl)methyl)-6,6-dimethyl-3-azabicyclo[3.1.0]hexane-2,4-dione hydrochloride] |
| < 500 nM | Cc1cc(Cl)cc(-c2ncnn3cc(CN4C(=O)C5C(C4=O)C5(C)C)cc23)c1CC1CN[C@H](C)CO1 (single isomer, unassigned) [Example 41, hydrochloride] |

The next lines start with the compound.

| SMILES | IC50 |
| --- | --- |
| O=c1cc[nH]c(=O)n1Cc1cc2c(-c3cc(Cl)cc4ccn(CC5(F)CCNCC5)c34)ncnn2c1 [Example 130, 3-((4-(5-chloro-1-((4-fluoropiperidin-4-yl)methyl)-1H-indol-7-yl)pyrrolo[2,1-f][1,2,4]triazin-6-yl)methyl)pyrimidine-2,4(1H,3H)-dione hydrochloride] | < 500 nM |
| Cc1cc(Cl)cc(-c2ncnn3cc(Cn4c(=O)ccn(C)c4=O)cc23)c1CC1CNC[C@H](C)O1 (stereo partly drawn) [Example 59, 3-((4-(5-chloro-3-methyl-2-(((6S)-6-methylmorpholin-2-yl)methyl)phenyl)pyrrolo[2,1-f][1,2,4]triazin-6-yl)methyl)-1-methylpyrimidine-2,4(1H,3H)-dione hydrochloride] | < 500 nM |
| Cc1cc(Cl)cc(-c2ncnn3cc(Cn4c(=O)ccn(C)c4=O)cc23)c1CC1CNCCO1 (racemic) [Example 60, 3-((4-(5-chloro-3-methyl-2-(morpholin-2-ylmethyl)phenyl)pyrrolo[2,1-f][1,2,4]triazin-6-yl)methyl)-1-methylpyrimidine-2,4(1H,3H)-dione hydrochloride] | < 500 nM |
| CCn1ccc(=O)n(Cc2cc3c(-c4cc(Cl)cc(C)c4C[C@@H]4CNCCO4)ncnn3c2)c1=O (single isomer, unassigned) [Example 104, hydrochloride] | < 500 nM |
| Cc1cc(Cl)cc(-c2ncnn3cc(Cn4c(=O)ccn(CC(F)(F)F)c4=O)cc23)c1CC1CNC[C@H](C)O1 (stereo partly drawn) [Example 62, 3-((4-(5-chloro-3-methyl-2-(((6S)-6-methylmorpholin-2-yl)methyl)phenyl)pyrrolo[2,1-f][1,2,4]triazin-6-yl)methyl)-1-(2,2,2-trifluoroethyl)pyrimidine-2,4(1H,3H)-dione hydrochloride] | < 500 nM |
| [2H]C([2H])([2H])n1ccc(=O)n(Cc2cc3c(-c4cc(Cl)cc(C)c4C[C@@H]4CNCCO4)ncnn3c2)c1=O (single isomer, unassigned) [Example 105, hydrochloride] | < 500 nM |
| C[C@H]1CNCC(Cc2c(Cl)cc(Cl)cc2-c2ncnn3cc(Cn4c(=O)ccn(C)c4=O)cc23)O1 (single isomer, unassigned) [Example 126, hydrochloride] | < 500 nM |

molecular target: T1, full-length USP7; test: Enzymatic assay to determine % inhibition of USP7 activity at 1 μM test compound (Ubiquitin-Rhodamine 110 cleavage); assay type: biochemical; conditions: 1 μM of the test compound; given where IC50 has not been determined yet; mean of two repetitions
Procedure, shortened: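 Full-length USP7 (0.5-1.0 nM) was preincubated 15 min with DTT in HEPES pH 7.5 buffer, and compound was added at a final 1 μM. Ubiquitin-Rhodamine 110 (0.5 μM final) was then cleaved for 30-60 min at 25° C., read at 485/535 nm. % inhibition is the mean of two repetitions.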

| inhibition at 1 µM | SMILES |
| --- | --- |
| > 70% | CC1(C)C2C(=O)N(Cc3cc4c(-c5cc(Cl)cc6c5N(C5CNC5)CCC6)ncnn4c3)C(=O)C21 (stereo not drawn) [Example 69, 3-((4-(1-(azetidin-3-yl)-6-chloro-1,2,3,4-tetrahydroquinolin-8-yl)pyrrolo[2,1-f][1,2,4]triazin-6-yl)methyl)-6,6-dimethyl-3-azabicyclo[3.1.0]hexane-2,4-dione hydrochloride] |
| 20 to 49% | CC1(C)C2C(=O)N(Cc3cc4c(-c5cc(Cl)ccc5N5CC[C@@H](N)C5)ncnn4c3)C(=O)C21 (stereo partly drawn) [Example 87, 3-((4-(2-((R)-3-aminopyrrolidin-1-yl)-5-chlorophenyl)pyrrolo[2,1-f][1,2,4]triazin-6-yl)methyl)-6,6-dimethyl-3-azabicyclo[3.1.0]hexane-2,4-dione hydrochloride] |
| 20 to 49% | Cc1cc(Cl)cc(-c2ncnn3cc(CN4C(=O)C5C(C4=O)C5(C)C)cc23)c1O[C@@H]1CN[C@@H](C)C1 (stereo partly drawn) [Example 20, 3-((4-(5-chloro-3-methyl-2-(((3S,5S)-5-methylpyrrolidin-3-yl)oxy)phenyl)pyrrolo[2,1-f][1,2,4]triazin-6-yl)methyl)-6,6-dimethyl-3-azabicyclo[3.1.0]hexane-2,4-dione hydrochloride] |
| 20 to 49% | CC1(C)C2C(=O)N(Cc3cc4c(-c5cc(Cl)cc6ccn(CC7CNCC(F)(F)C7)c56)ncnn4c3)C(=O)C21 (stereo not drawn) [Example 26, 3-((4-(5-chloro-1-((5,5-difluoropiperidin-3-yl)methyl)-1H-indol-7-yl)pyrrolo[2,1-f][1,2,4]triazin-6-yl)methyl)-6,6-dimethyl-3-azabicyclo[3.1.0]hexane-2,4-dione dihydrochloride] |
| 20 to 49% | CC1(C)C2C(=O)N(Cc3cc4c(-c5cc(C(F)(F)F)cc6ccn(C7CCNC7)c56)ncnn4c3)C(=O)C21 (stereo not drawn) [Example 5, 6,6-dimethyl-3-((4-(1-(pyrrolidin-3-yl)-5-(trifluoromethyl)-1H-indol-7-yl)pyrrolo[2,1-f][1,2,4]triazin-6-yl)methyl)-3-azabicyclo[3.1.0]hexane-2,4-dione 2,2,2-trifluoroacetate] |
| 50 to 70% | Cc1cc(Cl)cc(-c2ncnn3cc(CN4C(=O)C5C(C4=O)C5(C)C)cc23)c1OC1CCNCC1 (stereo not drawn) [Example 4, 3-((4-(5-chloro-3-methyl-2-(piperidin-4-yloxy)phenyl)pyrrolo[2,1-f][1,2,4]triazin-6-yl)methyl)-6,6-dimethyl-3-azabicyclo[3.1.0]hexane-2,4-dione hydrochloride] |

The next lines start with the compound.

| SMILES | inhibition at 1 µM |
| --- | --- |
| Cc1cc(Cl)cc(-c2ncnn3cc(Cn4c(=O)ccn(C)c4=O)cc23)c1C[C@H]1CNCCO1 (single isomer, unassigned) [Example 100, hydrochloride] | 20 to 49% |
| Cc1nc(C(F)(F)F)cc(-c2ncnn3cc(Cn4c(=O)ccn(C)c4=O)cc23)c1OC1CCCNC1 (stereo not drawn) [Example 129, 1-methyl-3-((4-(2-methyl-3-(piperidin-3-yloxy)-6-(trifluoromethyl)pyridin-4-yl)pyrrolo[2,1-f][1,2,4]triazin-6-yl)methyl)pyrimidine-2,4(1H,3H)-dione hydrochloride] | < 20% |
| O=C1CN2CCC[C@H]2C(=O)N1Cc1cc2c(-c3cc(Cl)cc4ccn(C[C@@H]5CNCCO5)c34)ncnn2c1 (single isomer, unassigned) [Example 31, dihydrochloride] | 50 to 70% |
| Cn1ccc(=O)n(Cc2cc3c(-c4cc(Cl)cc(F)c4CC4CNCCO4)ncnn3c2)c1=O (stereo not drawn) [Example 116, 3-((4-(5-chloro-3-fluoro-2-(morpholin-2-ylmethyl)phenyl)pyrrolo[2,1-f][1,2,4]triazin-6-yl)methyl)-1-methylpyrimidine-2,4(1H,3H)-dione hydrochloride] | 50 to 70% |
